Literature values as cited in patent publication US9981985B2, “Pharmaceutical formulations containing 3-(4-cinnamyl-l-piperazinyl) amino derivatives of 3-formylrifamycin SV and 3-formylrifamycin S and a process of their preparation” (Adipharm EAD, priority 2012, dated 2018).

Experiments:
[1] = in vivo
[2] = in vivo tests, in comparison to rifampicin; from U.S. Pat. No. 5,095,108
[3] = in vivo; remark: listed apart in the source
[4] = from U.S. Pat. No. 5,095,108

**Q.** With “sodium salt of 3-(4-cinnamyl-1-piperazinyl)-iminomethyl rifamycin SV [Compound Ib]” as the compound, how does the pharmacokinetic properties [1] read?
**A.** better

**Q.** And the resorption [1]?
**A.** faster

**Q.** With `CO[C@H]1/C=C/O[C@@]2(C)Oc3c(C)c(O)c4c(O)c(c(/C=N/N5CCN(C/C=C/c6ccccc6)CC5)c(O)c4c3C2=O)NC(=O)/C(C)=C\C=C\[C@H](C)[C@H](O)[C@@H](C)[C@@H](O)[C@@H](C)[C@H](OC(C)=O)[C@@H]1C` [Ia, 3-(4-cinnamyl-1-piperazinyl)-iminomethyl rifamycin SV] as the compound, how does the therapeutic effect [2] read?
**A.** higher therapeutic effect in comparison to rifampicin

**Q.** What about the serum half-life [3] of the same compound?
**A.** considerably longer

**Q.** What about the acute toxicity [4] of the same compound?
**A.** low
